According to article PMC8537901, “Progesterone Metabolism by Human and Rat Hepatic and Intestinal Tissue” (Pharmaceutics, 2021):

Key:
[1] = Human cytosol stability assay, liver cytosol; conditions: for effect of inhibitor on rate of progesterone depletion: presence of NADPH, inhibitor 100 µM; for half-life at 1 µM: human, t1/2 (min)
Description: (§3) Progesterone stability was assessed in intestinal and liver cytosol in the presence or absence of NADPH cofactor and specific enzyme inhibitors. For both intestinal and liver cytosol, the protein concentration was adjusted to 0.5 mg/mL. Both human liver and intestinal cytosol (with 0.1 mM EDTA) were then pre-incubated for 10 min in a thermomixer comfort by Eppendorf in an RNAse/DNAse 96-well plate until reaching a temperature of 37 °C. Next, a final concentration of 100 µM of enzyme inhibitors were added to the cytosol. […] The enzyme inhibitors used during this study were: Epalrestat (AKR1B1 inhibitor), Diazepam (AKR1C inhibitor), Finasteride (AKR1D1 inhibitor), Diazepam + Flufenamic Acid (AKR1C inhibitor cocktail), Menadione (aldehyde oxidase inhibitor) and Allopurinol (xanthine oxidase inhibitor).
(§4) Next, the mixtures were incubated for an additional 5 min, and NADPH was added at a final concentration of 1 mM. Finally, progesterone (1 µM) was added and mixed by pipetting to initiate the reaction. Immediately following reaction initiation, a 50 µL sample was taken. The sample was then diluted in 100 µL of acetonitrile to terminate enzymatic reaction. Samples were centrifuged at 4 °C and 2500 rpm for 30 min. Following centrifugation, the supernatant was removed and diluted 1:1 with milli-Q water. […] This process was followed for sampling at all required time intervals.
(§5) Liquid chromatography with tandem mass spectrometry (LC MS/MS) was used to analyse samples obtained from both cytosol and homogenate stability assays (see Appendix A Figure A1 for example spectra). […] The column used was Aquity HSS T3 (1.8 µm) 2.1 × 50 mm (Water Ltd., Herts, UK), and the samples were run with an injection volume of 8 µL at 70 °C. A solvent system and gradient with a flow rate of 600 µL/minute was used to perform this analysis. The mobile phase consisted of 10 mM ammonium formate with 0.1% v/v formic acid in water (A) and acetonitrile (B).
(§6) The percent of substrate present at each timepoint relative to the 0 min sample was calculated from the LC-MS/MS peak area ratios (compound peak area/internal standard peak area). […] The Kolmogorov–Smirnov test was used to assess normality followed by Student’s t-test. Results were considered statistically significant when p < 0.05.

[2] = Tissue homogenate stability assay, human liver homogenate; assay type: in vitro ADME; conditions: for half-life: human, liver homogenate
Description: (§1) Progesterone stability was determined in rat and human intestinal mucosa and liver homogenates. In addition, progesterone was incubated in stock solution containing phosphate-buffered saline, 0.1% Tween80 and 1% DMSO. […] Stability assays were carried out either in the presence or absence of 1mM of the cofactor NADPH. The physiological concentration of NADPH was approximately 100 µM [26]. However, for the purpose of this research, a concentration of 1 mM was used to ensure an excess of co-factor was available and not rate-limited throughout the incubation period.
(§2) The protein concentration for the rat and human liver and intestinal homogenates was adjusted to 5 mg/mL. […] A final concentration of 1 µM progesterone and 1 mM NADPH (where required) was added to the homogenate, and samples were immediately taken (t–0). Next, the homogenate solution was incubated with shaking (700 rpm) at 37 °C, and further samples were taken at timed intervals. To stop the enzymatic reaction, samples were immediately diluted in ice-cold acetonitrile at a ratio of 1:3 sample:acetonitrile. The samples were then centrifuged at 3000 rpm for 30 min to pellet the homogenates.

[3] = Tissue homogenate stability assay, rat liver homogenate; assay type: in vitro ADME; conditions: for half-life: Sprague Dawley, rat
Description: as §1, §2

[4] = Tissue homogenate stability assay, human intestinal homogenate; assay type: in vitro ADME; conditions: for half-life: human
Description: as §1, §2

[5] = Tissue homogenate stability assay, rat intestinal homogenate; assay type: in vitro ADME; conditions: for half-life: Sprague Dawley, rat
Description: as §1, §2

[6] = Stability in control media (phosphate-buffered saline, 0.1% Tween80, 1% DMSO, pH 7.4); assay type: physicochemical
Description: as §1

[7] = Human cytosol stability assay, intestinal cytosol; conditions: for half-life at 1 µM: human, human intestinal cytosol, t1/2 (min)
Description: as §3, §4, §5, §6

[8] = human liver homogenate, no NADPH
[9] = rat liver homogenate + 1 mM NADPH
[10] = human intestinal homogenate + 1 mM NADPH
[11] = human intestinal homogenate, no NADPH
[12] = rat intestinal homogenate + 1 mM NADPH
[13] = human liver cytosol + NADPH + AKR1B1 inhibitor (Epalrestat 100 µM)
[14] = human liver cytosol + NADPH + AKR1C1 cocktail (Diazepam + Flufenamic Acid)
[15] = human liver cytosol + NADPH, no inhibitor
[16] = human intestinal cytosol + NADPH + AKR1B inhibitor (Epalrestat 100 µM)
[17] = human intestinal cytosol + NADPH, no inhibitor

CN1C(=O)CN=C(c2ccccc2)c2cc(Cl)ccc21 [diazepam, Diazepam]
effect of inhibitor on rate of progesterone depletion ([1]; human liver cytosol): no significant difference

CC(=O)[C@H]1CC[C@H]2[C@@H]3CCC4=CC(=O)CC[C@]4(C)[C@H]3CC[C@]12C [Progesterone]
% Drug Remaining After 60 min ([2]; human liver homogenate + 1 mM NADPH): 0.27 ± 0.26%
% of original concentration remaining ([2]; human liver homogenate + NADPH, within 10 min of incubation): less than 2%
% of the drug remaining ([2]; human liver homogenate, absence of NADPH, after two hours of incubation): over 40%
% Drug Remaining After 60 min [2, 8]: 43.32 ± 4.84%
half-life ([2]; human liver homogenate + 1 mM NADPH, 1 µM progesterone, 5 mg/mL protein, 37 °C): 0.045 ± 0.000833 h
half-life [2, 8]: 0.649 ± 0.195 h
half-life ([3]; liver homogenate, pH 7.4, rat liver homogenate, no NADPH): 0.663 ± 0.169 h
half-life ([3]; rat liver homogenate, pH 7.4, rat liver homogenate + 1 mM NADPH): 0.045 h
t1/2 [3, 9]: 2.72 ± 0.05 min
% Drug Remaining After 60 min [3, 9]: 0.03 ± 0.0005%
% of original concentration remaining ([3]; rat liver homogenate + NADPH, within 10 min of incubation): less than 2%
% of the drug remaining ([3]; rat liver homogenate, absence of NADPH, after two hours of incubation): over 40%
% Drug Remaining After 60 min ([3]; rat liver homogenate, no NADPH): 46.04 ± 0.69%
t1/2 [4, 10]: 2.6203 ± 0.4568 h
% Drug Remaining After 60 min [4, 10]: 73.92 ± 5.11%
% Drug Remaining After 60 min ([4]; human intestinal homogenate + 1 mM NADPH, listed as progesterone): 74%
% Drug Remaining After 60 min [4, 11]: 75.82 ± 9.35%
% Drug Remaining After 60 min ([4]; human intestinal homogenate, no NADPH, listed as progesterone): 76%
half-life ([4]; human intestinal homogenate, human intestinal homogenate + 1 mM NADPH): 2.62 h
half-life [4, 11]: 2.6 ± 0.229 h
half-life ([5]; rat intestinal homogenate, pH 7.4, rat intestinal homogenate + 1 mM NADPH): 3.29 h
half-life ([5]; rat intestinal homogenate, pH 7.4, rat intestinal homogenate, no NADPH): 5.87 ± 0.614 h
t1/2 [5, 12]: 3.2938 ± 0.0485 h
% Drug Remaining After 60 min [5, 12]: 76.67 ± 4.72%
% Drug Remaining After 60 min ([5]; rat intestinal homogenate + 1 mM NADPH, listed as progesterone): 77%
% Drug Remaining After 60 min ([5]; rat intestinal homogenate, no NADPH): 90.93 ± 2.19%
% Drug Remaining After 60 min ([5]; rat intestinal homogenate, no NADPH, listed as progesterone): over 90%
% detectable in control media ([6]; after 2 h in control media): 99%
time stable in stock solution ([6]; phosphate-buffered saline, 0.1% Tween80, 1% DMSO, pH 7.4, 1 µM): up to 6 h
t1/2 [1, 13]: 0.3135 ± 0.016 h
% Drug Remaining After 60 min [1, 13]: 6.6 ± 6.24%
t1/2 [1, 14]: 0.5927 ± 0.111 h
% Drug Remaining After 60 min [1, 14]: 33.5 ± 1.72%
% Drug Remaining After 60 min ([1]; human liver cytosol + NADPH + AKR1C1 inhibitor (Diazepam 100 µM)): 0.11 ± 0.04%
% Drug Remaining After 60 min ([1]; human liver cytosol + NADPH + AKR1D1 inhibitor (Finasteride 100 µM)): 7.85 ± 6.31%
% Drug Remaining After 60 min ([1]; human liver cytosol + NADPH + AOX inhibitor (Menadione 100 µM)): 0.97 ± 0.88%
t1/2 [1, 15]: 0.2288 ± 0.0135 h
% Drug Remaining After 60 min [1, 15]: 0.04 ± 0.01%
% Drug Remaining After 60 min ([1]; human liver cytosol, absence of NADPH, + AOX inhibitor (Menadione 100 µM)): 69.14 ± 2.91%
% Drug Remaining After 60 min ([1]; human liver cytosol, absence of NADPH, + XAO inhibitor (Allopurinol 100 µM)): 57.09 ± 2.01%
half-life at 1 µM ([1]; human liver cytosol, human liver cytosol + NADPH + AKR1C1 cocktail (Diazepam + Flufenamic Acid)): 0.593 h
half-life at 1 µM ([1]; human liver cytosol, human liver cytosol + NADPH, no inhibitor): 0.217 h
half-life at 1 µM ([1]; human liver cytosol, liver cytosol section (Figure 4), absence of NADPH, no inhibitor, line printed as Human intestinal Cytosol): 1.72 ± 0.156 h
half-life at 1 µM ([1]; human liver cytosol, with Allopurinol (xanthine oxidase inhibitor), 100 µM, human liver cytosol, absence of NADPH, + XAO inhibitor (Allopurinol 100 µM)): 1.66 ± 0.152 h
half-life at 1 µM ([1]; human liver cytosol, with Diazepam (AKR1C1 inhibitor), 100 µM, human liver cytosol + NADPH + AKR1C1 inhibitor (Diazepam 100 µM)): 0.235 ± 0.004 h
half-life at 1 µM ([1]; human liver cytosol, with Epalrestat (AKR1B1 inhibitor), 100 µM, human liver cytosol + NADPH + AKR1B1 inhibitor (Epalrestat 100 µM)): 0.3 h
half-life at 1 µM ([1]; human liver cytosol, with Finasteride (AKR1D1 inhibitor), 100 µM, human liver cytosol + NADPH + AKR1D1 inhibitor (Finasteride 100 µM)): 0.308 ± 0.0283 h
half-life at 1 µM ([1]; human liver cytosol, with Menadione (aldehyde oxidase inhibitor), 100 µM, human liver cytosol, absence of NADPH, + AOX inhibitor (Menadione 100 µM)): 2.21 ± 0.0782 h
half-life at 1 µM ([1]; liver cytosol, with Menadione 100 µM (aldehyde oxidase inhibitor), human liver cytosol + NADPH + AOX inhibitor (Menadione 100 µM)): 0.258 ± 0.0338 h
% Drug Remaining After 60 min ([1]; liver cytosol section (Figure 4), absence of NADPH, no inhibitor, line printed as Human intestinal Cytosol): 56.6 ± 2.07%
t1/2 [7, 16]: 3.0687 ± 0.3158 h
% Drug Remaining After 60 min [7, 16]: 80.87 ± 7.84%
% Drug Remaining After 60 min ([7]; human intestinal cytosol + NADPH + AKR1C1 inhibitor (Diazepam 100 µM)): 77.38 ± 6.37%
% Drug Remaining After 60 min ([7]; human intestinal cytosol + NADPH + AKR1C cocktail (Diazepam + Flufenamic Acid)): 73.56 ± 3.69%
% Drug Remaining After 60 min ([7]; human intestinal cytosol + NADPH + AKR1D1 inhibitor (Finasteride 100 µM)): 79.56 ± 4.44%
t1/2 [7, 17]: 2.1587 ± 0.0458 h
% Drug Remaining After 60 min [7, 17]: 72.51 ± 6.48%
half-life at 1 µM [7, 17]: 2.16 h
half-life at 1 µM ([7]; with Epalrestat (AKR1B inhibitor), 100 µM, human intestinal cytosol + NADPH + AKR1B inhibitor (Epalrestat 100 µM)): 3.07 h
half-life at 1 µM ([7]; with Finasteride (AKR1D1 inhibitor), 100 µM, human intestinal cytosol + NADPH + AKR1D1 inhibitor (Finasteride 100 µM)): 3.03 ± 0.0732 h

CC1=CC(=O)c2ccccc2C1=O [Menadione]
effect of inhibitor on rate of progesterone depletion ([1]; human liver cytosol): not deemed significant
